In ChEMBL document CHEMBL3045473, “Affinity of 3-benzylidene- and 3-cinnamylidenemyosmine analogues for Periplaneta americana nicotinic acetylcholine receptors” (J Pestic Sci, 2006):

Key:
[1] = target: T1, Nicotinic acetylcholine receptor alpha8 subunit (Periplaneta americana, UniProt H6TY12); assay: Displacement of [3H]epibatidine from nAChR in Periplaneta americana (American cockroach) nerve cords membranes incubated at 24 degC for 2 hr by liquid scintillation counting method
T1 sequence (H6TY12 whole entry): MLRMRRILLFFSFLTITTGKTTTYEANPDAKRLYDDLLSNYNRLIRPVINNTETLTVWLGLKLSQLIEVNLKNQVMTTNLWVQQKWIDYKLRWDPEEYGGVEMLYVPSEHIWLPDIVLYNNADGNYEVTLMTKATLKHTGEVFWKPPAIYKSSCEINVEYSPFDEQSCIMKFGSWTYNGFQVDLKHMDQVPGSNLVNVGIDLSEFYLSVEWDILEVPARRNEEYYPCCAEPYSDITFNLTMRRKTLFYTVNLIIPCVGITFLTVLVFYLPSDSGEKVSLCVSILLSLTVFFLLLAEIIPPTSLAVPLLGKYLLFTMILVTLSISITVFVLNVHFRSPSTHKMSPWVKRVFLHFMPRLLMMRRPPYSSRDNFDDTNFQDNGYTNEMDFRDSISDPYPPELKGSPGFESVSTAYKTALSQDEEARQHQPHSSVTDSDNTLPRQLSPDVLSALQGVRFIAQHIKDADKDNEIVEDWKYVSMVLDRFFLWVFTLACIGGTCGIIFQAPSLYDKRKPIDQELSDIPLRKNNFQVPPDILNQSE

[2] = target: T2, Nicotinic acetylcholine receptor alpha8 subunit (Periplaneta americana) (UniProt H6TY12); assay: Displacement of [3H]epibatidine from nAChR in Periplaneta americana (American cockroach) nerve cords membranes at 10 uM incubated at 24 degC for 2 hr by liquid scintillation counting method
T2 sequence (whole entry): T1 sequence (H6TY12 whole entry)

| Compound | IC50 [1] [µM] | inhibition [2] [%] |
| --- | --- | --- |
| C(=C1/CCCN=C1c1cccnc1)/c1ccccc1 [3-BENZYLIDENEANABASEINE] | 0.035 | – |
| COc1ccc(/C=C2\CCN=C2c2cccnc2)c(OC)c1 | 4.55 | – |
| CN(C)c1ccc(/C=C2\CCN=C2c2cccnc2)cc1 | 5.49 | – |
| COc1cccc(/C=C2\CCN=C2c2cccnc2)c1 | > 10 | 23.6 |
| Oc1ccc(/C=C2\CCN=C2c2cccnc2)cc1 | 0.31 | – |
| Fc1ccc(/C=C2\CCN=C2c2cccnc2)cc1 | > 10 | 22.3 |
| COc1ccc(/C=C2\CCN=C2c2cccnc2)c(O)c1 | 3.89 | – |
| Clc1ccc(C2=NCCC/C2=C\c2ccccc2)cn1 | 0.0212 | – |
| COc1ccccc1/C=C1\CCN=C1c1cccnc1 | > 10 | 49.5 |
| Oc1cccc(/C=C2\CCN=C2c2cccnc2)c1 | > 10 | 32.1 |
| N#Cc1ccc(/C=C2\CCN=C2c2cccnc2)cc1 | > 10 | 31.4 |
| COc1ccc(/C=C2\CCN=C2c2cccnc2)cc1 | > 10 | 31.4 |
| Clc1ccc(/C=C2\CCN=C2c2cccnc2)cc1 | > 10 | 21.5 |
| c1cncc(C2=NCCC2)c1 [MYOSMINE] | > 10 | 27.3 |
| Oc1ccc(/C=C2\CCN=C2c2cccnc2)c(O)c1 | 0.12 | – |
| Oc1ccccc1/C=C1\CCN=C1c1cccnc1 | 6.9 | – |
| CN(C)c1ccc(/C=C/C=C2\CCN=C2c2cccnc2)cc1 | 2.07 | – |
| C(=C1/CCN=C1c1cccnc1)/c1ccccc1 | > 10 | 41.3 |
| C(=C\c1ccccc1)/C=C1\CCN=C1c1cccnc1 [3-CINNAMYLIDENEMYOSMINE] | 3.52 | – |
